Results reported in US8193203B2, “Bicyclic compounds having activity at the CXCR4 receptor” (Allergan, Inc., priority 2008, dated 2012).

Target: T1, human CXCR4 receptor (Homo sapiens, UniProt P61073)
T1 construct: expressed in transfected cells
Assay: Measurement of intracellular Ca+2 responses (FLIPR), antagonism of the SDF-1α response
Assay type: cell-based
Details: for IC50: HEK-Gqi5 cells stably expressing human CXCR4, Fluo-4 FLIPR, antagonism of SDF-1α 1.9 nM (EC65); for CXCR4 (% Inh): percent antagonism of SDF-1α 1.9 nM (EC65) response, HEK-Gqi5 human CXCR4 cells, value in brackets
Method: Measurement of Intracellular Ca^+2 Responses for CXCR4 Compounds
HEK-Gqi5 cells stably expressing the human CXCR4 receptor were utilized for these studies. The growth media for the CXCR4 receptor expressing cell line was DMEM high glucose medium supplemented with 10% fetal bovine serum (FBS), 1% antibiotic-antimycotic, 50 ug/ml hygromycin B, and 400 μg/ml geneticin. Ten thousand cells per well were plated into 384-well poly-D-lysine coated plates one day prior to use. On the day of the experiment, the cells were washed twice with Hank's Balanced Salt Solution supplemented with 20 mM hepes (HBSS/hepes buffer). The cells were then dye loaded with 2 uM Fluo-4 diluted in the HBSS/Hepes buffer and incubated at 37° C. for 40 minutes. Extracellular dye was removed by washing the cell plates four times prior to placing the plates in the FLIPR (Fluorometric Imaging Plate Reader, Molecular Devices). Ligands were diluted in HBSS/Hepes buffer and prepared in 384-well microplates. The positive control, stromal-cell derived factor-1 (SDF-1α), was diluted in HBSS/Hepes buffer with 4 mg/ml fatty acid free bovine serum albumin. Two drug additions were made by the FLIPR. The first drug addition was the test drug in concentrations ranging from 2.44 nM to 40,000 nM. After this addition, fluorescent measurements were taken. Any calcium release in response to this drug addition represents agonist activity of the compounds. The second drug addition was SDF-1α at a final concentration of 1.9 nM (EC65). Fluorescence measurements were also taken after this second drug addition and were used to determine the ability of the test compounds to antagonize the SDF-1α response. Results were expressed as EC50 and efficacy values, as well as IC50 and percent antagonism values. As controls, SDF-1α (CXCR4 agonist) and AMD3100 (CXCR4 antagonist) dose-response curves were also determined in each study.

T1 sequence (P61073 whole entry): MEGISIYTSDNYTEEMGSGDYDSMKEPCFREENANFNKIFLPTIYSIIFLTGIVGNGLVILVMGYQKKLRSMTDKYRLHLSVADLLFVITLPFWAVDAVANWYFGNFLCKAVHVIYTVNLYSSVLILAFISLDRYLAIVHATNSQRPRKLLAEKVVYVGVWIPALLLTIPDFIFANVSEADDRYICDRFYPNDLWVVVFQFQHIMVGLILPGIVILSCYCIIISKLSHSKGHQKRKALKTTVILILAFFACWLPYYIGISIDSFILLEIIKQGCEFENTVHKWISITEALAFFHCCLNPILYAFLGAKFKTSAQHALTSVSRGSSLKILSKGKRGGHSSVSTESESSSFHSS

Row | Molecule | IC50 (values in nM) | CXCR4 (% Inh) | IC50 (values given in μM)
1 | N˜4˜-{1-[2-(Dimethylamino)-6-methoxybenzyl]pyrrolidin-3-yl}-N˜2˜-[3-(dimethylamino)propyl]-6,7-dimethoxyquinazoline-2,4-diamine [Compound 165] | 538 nM | 97% | 
2 | COc1cc2nc(N3CCCCCC3)nc(NC3CCN(Cc4c(OC)cccc4N(C)C)CC3)c2cc1OC [Compound 52, 2-(Azepan-1-yl)-N-(1-(2-(dimethylamino)-6-methoxybenzyl)piperidin-4-yl)-6,7-dimethoxyquinazolin-4-amine] | 730 nM | 90% | 
3 | CCN1CCC(CNc2nc(NC3CCN(Cc4c(OC)cccc4N(C)C)CC3)c3ccccc3n2)C1 (centres unmarked) [Compound 107, N4-(1-(2-(Dimethylamino)-6-methoxybenzyl)piperidin-4-yl)-N2-((1-ethylpyrrolidin-3-yl)methyl)quinazoline-2,4-diamine] | 653 nM | 96% | 
4 | COc1cc2nc(NC[C@@H]3CCNC3)nc(NC3CCN(Cc4c(OCCN(C)C)cccc4N(C)C)CC3)c2cc1OC [Compound 123, (R)—N-4-(1-(2-(Dimethylamino)-6-(2-(dimethylamino)ethoxy)benzyl)piperidin-4-yl)-6,7-dimethoxy-N2-(pyrrolidin-3-ylmethyl)quinazoline-2,4-diamine] | 84 nM | 96% | 
5 | COc1cccc(N(C)C)c1CN1CCC(Nc2nc(NC[C@H]3CCN(C(=O)OC(C)(C)C)C3)nc3ccccc23)CC1 [Compound 110, (R)-tert-Butyl 3-((4-(1-(2-(Dimethylamino)-6-methoxybenzyl)piperidin-4-ylamino)quinazolin-2-ylamino)methyl)pyrrolidine-1-carboxylate] |  | 81% | 2200 nM
6 | CCN(CC)CCCNc1nc(NC2CCN(Cc3c(OC)cccc3N(C)C)CC2)c2ccccc2n1 [Compound 48, N2-(3-(Diethylamino)propyl)-N4-(1-(2-(dimethylamino)-6-methoxybenzyl)piperidin-4-yl)quinazoline-2,4-diamine] | 150 nM | 100% | 
7 | CCN(CC)CCCNc1nc(NC2CCN(Cc3ccccc3N3CCCCC3)CC2)c2cc(OC)c(OC)cc2n1 [Compound 50] |  | 86% | 6700 nM
8 | COc1cccc(N(C)C)c1CN1CCC(Nc2nc(NCCN)nc3ccccc23)CC1 [Compound 125, N2-(2-Aminoethyl)-N4-(1-(2-(dimethylamino)-6-methoxybenzyl)piperidin-4-yl)quinazoline-2,4-diamine] | 268 nM | 97% | 
9 | COc1cccc(N(C)C)c1CN1CCC(Nc2nc(NCCCN(C)C)nc3ccc(Br)cc23)CC1 [Compound 146, 6-Bromo-N˜4˜-{1-[2-(dimethylamino)-6-methoxybenzyl]piperidin-4-yl}-N˜2˜-[3-(dimethylamino)propyl]quinazoline-2,4-diamine] |  | 96% | 1200 nM
10 | CCN(CC)CCCNc1nc(NC2CCN(Cc3cccc4ccn(C)c34)CC2)c2ccccc2n1 [Compound 133, N2-(3-(Diethylamino)propyl)-N4-(1-((1-methyl-1H-indol-7-yl)methyl)piperidin-4-yl)quinazoline-2,4-diamine] |  | 63% | 2200 nM
11 | COc1cccc(N(C)C)c1CN1CCC(Nc2nc(NC[C@@H]3CCNC3)nc3ccccc23)CC1 [Compound 113, (R)—N-4-(1-(2-(Dimethylamino)-6-methoxybenzyl)piperidin-4-yl)-N2-(pyrrolidin-3-ylmethyl)quinazoline-2,4-diamine] | 129 nM | 99% | 
12 | COc1cccc(N(C)C)c1CN1CCC(Nc2nc(N3CC(CN(C)C(=O)OC(C)(C)C)C3)nc3ccccc23)CC1 [Compound 103, tert-Butyl (1-(4-(1-(2-(Dimethylamino)-6-methoxybenzyl)piperidin-4-ylamino)quinazolin-2-yl)azetidin-3-yl)methyl(methyl)carbamate] |  | 82% | 4100 nM
13 | COc1cc2nc(NCCCN(C)C)nc(NC3CCN(Cc4c(OC)cccc4N(C)C)CC3)c2cc1OC [Compound 78] | 283 nM | 100% | 
14 | COc1cccc(N(C)C)c1CN1CCC(Nc2nc(N3CC3)nc3ccccc23)CC1 [Compound 92, 2-(Aziridin-1-yl)-N-(1-(2-(dimethylamino)-6-methoxybenzyl)piperidin-4-yl)quinazolin-4-amine] |  | 75% | 2100 nM

The next lines start with the values.

Row | IC50 (values in nM) | CXCR4 (% Inh) | IC50 (values given in μM) | Molecule
15 | 47 nM | 92% |  | COc1cc2nc(NCCc3nccs3)nc(NC3CCN(Cc4c(OCCN(C)C)cccc4N(C)C)CC3)c2cc1OC [Compound 209, N˜4˜-(1-{2-(Dimethylamino)-6-[2-(dimethylamino)ethoxy]benzyl}piperidin-4-yl)-6,7-dimethoxy-N˜2˜-[2-(1,3-thiazol-2-yl)ethyl]quinazoline-2,4-diamine]
16 | 131 nM | 96% |  | COc1cc2nc(SCCN(C)C)nc(NC3CCN(Cc4c(OCCN(C)C)cccc4N(C)C)CC3)c2cc1OC [Compound 231, N-(1-(2-(Dimethylamino)-6-(2-(dimethylamino)ethoxy)benzyl)piperidin-4-yl)-2-(2-(dimethylamino)ethylthio)-6,7-dimethoxyquinazolin-4-amine]
17 | 58 nM | 98% |  | COc1cc2nc(NCc3cnco3)nc(NC3CCN(Cc4c(OCCN(C)C)cccc4N(C)C)CC3)c2cc1OC [Compound 212, N˜4˜-(1-{2-(Dimethylamino)-6-[2-(dimethylamino)ethoxy]benzyl}piperidin-4-yl)-6,7-dimethoxy-N˜2˜-(1,3-oxazol-5-ylmethyl)quinazoline-2,4-diamine]
18 | 30 nM | 100% |  | COc1cc2nc(NCc3ncc[nH]3)nc(NC3CCN(Cc4c(OCCN(C)C)cccc4N(C)C)CC3)c2cc1OC [Compound 213, N˜4˜-(1-{2-(Dimethylamino)-6-[2-(dimethylamino)ethoxy]benzyl}piperidin-4-yl)-N˜2˜-(1H-imidazol-2-ylmethyl)-6,7-dimethoxyquinazoline-2,4-diamine]
19 | 105 nM | 94% |  | COc1cc2nc(NCCCN)nc(NC3CCN(Cc4c(OC)cccc4N(C)C)CC3)c2cc1OC [Compound 227]
20 | 34 nM | 85% |  | COc1cc2nc(NCc3cncs3)nc(NC3CCN(Cc4c(OCCN(C)C)cccc4N(C)C)CC3)c2cc1OC [Compound 197, N˜4˜-(1-{2-(Dimethylamino)-6-[2-(dimethylamino)ethoxy]benzyl}piperidin-4-yl)-6,7-dimethoxy-N˜2˜-(1,3-thiazol-5-ylmethyl)quinazoline-2,4-diamine]
21 | 16 nM | 96% |  | COc1cc2nc(NCc3c[nH]cn3)nc(NC3CCN(Cc4c(OCCN(C)C)cccc4N(C)C)CC3)c2cc1OC [Compound 206, N˜4˜-(1-{2-(Dimethylamino)-6-[2-(dimethylamino)ethoxy]benzyl}piperidin-4-yl)-N˜2˜-(1H-imidazol-4-ylmethyl)-6,7-dimethoxyquinazoline-2,4-diamine]
22 |  | 84% | 1200 nM | COc1cccc(N(C)C)c1CN1CCC(Nc2nc(N3CCN(C)CC3)nc3ccccc23)CC1 [Compound 218, N-(1-(2-(Dimethylamino)-6-methoxybenzyl)piperidin-4-yl)-2-(4-methyl-piperazin-1-yl)quinazolin-4-amine]
